What was measured:
Format in all cases: physicochemical
[1] = Polymorph screening (stability of solid forms); conditions: for Relative stability of solid form in polymorph screening: under the conditions tested in this study
Experimental: Form B was obtained from anti-solvent addition experiment with ACN/water from Form A. Form B was observed only as a wet cake, which convers back to Form A when air-dried. The XRPD, TGA/DSC, and PLM characterizations with the same parameters described above were performed. […] (FIG. 5). The weight loss started immediately with heat applied and it stopped 75° C.
(§1) The approximate solubility of compound of Formula I (starting material, prepared as described above) was measured at RT in 20 different solvents. Approximately 2 mg of starting material were added into a 3-mL glass vial. Solvents were then added step wise into the vials until the solids were dissolved or a total volume of 1 mL was reached (Note: this is not thermodynamic solubility estimation, vortex and sonication were applied in between each solvent to accelerate the dissolution). Results summarized in Table 3-1 were used to guide the solvent selection for the polymorph screening. Beginning with the starting material, polymorph screening experiments were set up using methods of Slurry at different temperatures, Slow Cooling, Liquid and Solid Vapor Diffusion, Slow Evaporation, Anti-Solvent Addition and Ionic Liquid. The methods utilized, and crystal forms identified are summarized in Table 3-2 (Type A and Form A are used interchangeably and Type B and Form B are used interchangeably).
As described above, polymorph screening experiments were set up using methods of Slurry at different temperatures, Slow Cooling, Liquid and Solid Vapor Diffusion, Slow Evaporation, Anti-Solvent Addition, and Ionic Liquid. Two types, Form A (anhydrate) and Form B (weak solvate) were obtained from the experiments.
Further investigation was performed for Form B to better understand the phase origin.
Other than Form B (i.e., Type B), no additional polymorph was observed during the rest of the screening. […]
The approximate solubility of compound of Formula II (starting material) was determined at RT in 20 different solvents. […]
The molecular structure was determined by single crystal X-ray diffraction.

[2] = Characterization of anhydrate Form II of compound of Formula III
Experimental: Anhydrate Form II of compound of Formula III was characterized by XRPD, TGA, DSC and HPLC. As shown in XRPD result (FIG. 11), the sample was crystalline and conformed to Form II. Its HPLC purity was determined to be 99.78 area %. […] (onset temperature) in DSC were observed. […] Form II is the stable form of compound of Formula III.

[3] = Long-term stability study of compound of Formula I, 25° C./60% RH
Experimental: Long-term and accelerated stability studies were performed as below using the compound of Formula I prepared as described in Example 2.1.
Tests include appearance, purity by HPLC, assay by HPLC, chiral purity by HPLC, and water by KF titration. […]

[4] = Heat and light stressed stability of compound of Formula I in 95/5 (v/v) acetonitrile/isopropanol solution; conditions: for Purity, Chemical / Purity, Chiral: solution
Experimental: In addition, the stressed stability in 95/5 (v/v) acetonitrile /isopropanol solutions was also evaluated (e.g., during the SMB separation and successive work-up). Samples were stored under two different conditions over a period of 10 days: exposed to light at room temperature and in an oven at 60° C.

[5] = DVS test of compound of Formula I
[6] = Approximate solubility of starting material at RT in 20 solvents
Experimental: as §1
The approximate solubility of compound of Formula II (starting material) was determined at RT in 20 different solvents. Approximately 2 mg of the material were added into a 2-mL glass vial. Solvents were then added step into the vials until the solids were dissolved or a total volume of 1 mL was reached (Note: this is not a thermodynamic solubility estimation; vortex and sonication were applied in between each solvent addition to accelerate the dissolution). Results summarized in Table 5-1 were used to guide the solvent selection for the polymorph screening. Beginning with the starting material, polymorph screening experiments were set up using methods of Slurry at different temperatures, Slow Cooling, Liquid and Solid Vapor Diffusions, Slow Evaporation, Anti-Solvent Addition, and Ionic Liquid. No new polymorphs were observed during the screening. Type X and Form X are used interchangeably.

[7] = Wet cake drying study on compound of Formula II
Experimental: The wet cake drying study on compound of Formula II was carried out on a sample (98.67% purity of compound of Formula II) in an open dish held at 40° C. under vacuum. The sample was analyzed after one week (98.79% purity of compound of Formula II) and since the sample was stable, the study was extended another month. […] (98.74% purity of compound of Formula II).

[8] = organic solvent or mixture, ACN
[9] = organic solvent or mixture, Acetone
[10] = organic solvent or mixture, Cyclohexane
[11] = organic solvent or mixture, DCM
[12] = organic solvent or mixture, DMF
[13] = organic solvent or mixture, DMSO
[14] = organic solvent or mixture, EtOAc
[15] = organic solvent or mixture, EtOH
[16] = organic solvent or mixture, IPA
[17] = organic solvent or mixture, IPAc
[18] = organic solvent or mixture, MIBK
[19] = organic solvent or mixture, MTBE
[20] = organic solvent or mixture, MeOH
[21] = organic solvent or mixture, MeTHF
[22] = organic solvent or mixture, NMP
[23] = organic solvent or mixture, Pentane
[24] = organic solvent or mixture, Toluene
[25] = organic solvent or mixture, n-Butyl Acetate
[26] = organic solvent or mixture, n-Heptane

With `CCCCC1(CCCC)CS(=O)(=O)c2ccc(N(C)C)cc2[C@@H](c2ccc(OC)cc2)[C@H]1O` [Form A, (4R,5R)-3,3-dibutyl-7-(dimethylamino)-4-hydroxy-5-(4-methoxyphenyl)-2,3,4,5-tetrahydrobenzo[b]thiepine 1,1-dioxide] the “Relative stability of solid form in polymorph screening” value [1] was “most stable form”.
For `CCCCC1(CCCC)CS(=O)(=O)c2ccc(N(C)C)cc2[C@@H](c2ccc(OC)cc2)[C@H]1O` [Form B, (4R,5R)-3,3-dibutyl-7-(dimethylamino)-4-hydroxy-5-(4-methoxyphenyl)-2,3,4,5-tetrahydrobenzo[b]thiepine 1,1-dioxide], the “Solid form after air-drying of the wet cake (XRPD)” value ([1]; air-dried overnight) was “converted back to Form A”.
For `CCCCC1(CCCC)CS(=O)(=O)c2ccc(N(C)C)cc2[C@@H](c2ccc(OCc3ccc(C[N+]45CCN(CC4)CC5)cc3)cc2)[C@H]1O.[Cl-]` [Form II, 1-(4-((4-((4R,5R)-3,3-dibutyl-7-(dimethylamino)-4-hydroxy-1,1-dioxido-2,3,4,5-tetrahydrobenzo[b]thiepin-5-yl)phenoxy)methyl)benzyl)-1,4-diazabicyclo[2.2.2] octan-1-ium chloride], the “Stability of solid form” value [2] was “stable form”.
For `CCCCC1(CCCC)CS(=O)(=O)c2ccc(N(C)C)cc2[C@@H](c2ccc(O)cc2)[C@H]1O` [Form X, (4R,5R)-3,3-dibutyl-7-(dimethylamino)-4-hydroxy-5-(4-hydroxyphenyl)-2,3,4,5-tetrahydrobenzo[b]thiepine 1,1-dioxide], the “Relative stability of solid form in polymorph screening” value [1] was “most stable form”.
With `CCCCC1(CCCC)CS(=O)(=O)c2ccc(N(C)C)cc2[C@@H](c2ccc(OC)cc2)[C@H]1O` [Formula I, (4R,5R)-3,3-dibutyl-7-(dimethylamino)-4-hydroxy-5-(4-methoxyphenyl)-2,3,4,5-tetrahydrobenzo[b]thiepine 1,1-dioxide] the “Appearance (Color, morphology)” value ([3]; 0 months) was “Off-white”, the “HPLC Assay” value ([3]; 0 months) was 95.5% w/w and the “HPLC Purity” value ([3]; 0 months) was 99.6% a/a. For the same compound, the “HPLC Purity - Chiral” value ([3]; 0 months) was 100.0% a/a, the “Water by KF Titration” value ([3]; 0 months) was <0.1% w/w and the “Appearance (Color, morphology)” value ([3]; 3 months) was “Off-white”. The “HPLC Assay” value ([3]; 3 months) was 96.3% w/w, the “HPLC Purity” value ([3]; 3 months) was 99.9% a/a and the “HPLC Purity - Chiral” value ([3]; 3 months) was 100.0% a/a. For the same compound, the “Water by KF Titration” value ([3]; 3 months) was <0.1% w/w, the “Appearance (Color, morphology)” value ([3]; 6 months) was “Off-white” and the “HPLC Assay” value ([3]; 6 months) was 96.4% w/w. For the same compound, the “HPLC Purity” value ([3]; 6 months) was 99.8% a/a, the “HPLC Purity - Chiral” value ([3]; 6 months) was 100.0% a/a and the “Water by KF Titration” value ([3]; 6 months) was <0.1% w/w. The “Appearance (Color, morphology)” value ([3]; 12 months) was “Off-white”, the “HPLC Assay” value ([3]; 12 months) was 96.5% w/w and the “HPLC Purity” value ([3]; 12 months) was 99.8% a/a. For the same compound, the “HPLC Purity - Chiral” value ([3]; 12 months) was 100.0% a/a, the “Water by KF Titration” value ([3]; 12 months) was <0.1% w/w and the “Stability (chemical and chiral purity) for SMB operation and work-up” value ([4]; 95/5 (v/v) acetonitrile/isopropanol, 10 days, light at RT or 60° C.) was “adequate stability”. The “Purity, Chemical” value ([4]; RT (light), Day 0) was 99.4 % a/a, the “Purity, Chiral” value ([4]; RT (light), Day 0) was 99.6 % a/a and the “Purity, Chemical” value ([4]; RT (light), Day 3) was 99.4 % a/a. The “Purity, Chiral” value ([4]; RT (light), Day 3) was 99.6 % a/a, the “Purity, Chemical” value ([4]; RT (light), Day 7) was 99.4 % a/a and the “Purity, Chiral” value ([4]; RT (light), Day 7) was 99.7 % a/a. For the same compound, the “Purity, Chemical” value ([4]; RT (light), Day 10) was 99.4 % a/a, the “Purity, Chiral” value ([4]; RT (light), Day 10) was 99.4 % a/a and the “Purity, Chemical” value ([4]; T = 60° C., Day 0) was 99.3 % a/a. The “Purity, Chiral” value ([4]; T = 60° C., Day 0) was 99.7 % a/a, the “Purity, Chemical” value ([4]; T = 60° C., Day 3) was 98.7 % a/a and the “Purity, Chiral” value ([4]; T = 60° C., Day 3) was 99.5 % a/a. The “Purity, Chemical” value ([4]; T = 60° C., Day 7) was 98.5 % a/a, the “Purity, Chiral” value ([4]; T = 60° C., Day 7) was 99.8 % a/a and the “Purity, Chemical” value ([4]; T = 60° C., Day 10) was 98.5 % a/a. For the same compound, the “Purity, Chiral” value ([4]; T = 60° C., Day 10) was 99.7 % a/a, the “Form transition before and after DVS test” value [5] was “no form transition observed” and the “Hygroscopicity by DVS” value [5] was “Non-hygroscopic”. The solubility [6, 8] was > 44 mg/mL, the solubility [6, 9] was > 54 mg/mL and the solubility [6, 10] was < 2 mg/mL. The solubility [6, 11] was > 58 mg/mL, the solubility [6, 12] was > 48 mg/mL and the solubility [6, 13] was > 50 mg/mL. For the same compound, the solubility [6, 14] was > 40 mg/mL, the solubility [6, 15] was 27 to 54 mg/mL and the solubility [6, 16] was 7.3 to 22 mg/mL. For the same compound, the solubility [6, 17] was 24 to 48 mg/mL, the solubility [6, 18] was > 50 mg/mL and the solubility [6, 19] was 9.3 to 28 mg/mL. For the same compound, the solubility [6, 20] was 29 to 58 mg/mL, the solubility [6, 21] was > 56 mg/mL and the solubility [6, 22] was > 46 mg/mL. The solubility [6, 23] was < 2.7 mg/mL, the solubility [6, 24] was > 54 mg/mL and the solubility [6, 25] was > 56 mg/mL. The solubility [6, 26] was < 2.8 mg/mL and the solubility ([6]; water, H2O) was < 2.3 mg/mL.
For `CCCCC1(CCCC)CS(=O)(=O)c2ccc(N(C)C)cc2[C@@H](c2ccc(O)cc2)[C@H]1O` [Formula II, (4R,5R)-3,3-dibutyl-7-(dimethylamino)-4-hydroxy-5-(4-hydroxyphenyl)-2,3,4,5-tetrahydrobenzo[b]thiepine 1,1-dioxide], the “Purity of compound of Formula II” value ([7]; open dish, 40° C. under vacuum, after one week) was 98.79%, the “Purity of compound of Formula II” value ([7]; open dish, 40° C. under vacuum, study extended another month) was 98.74% and the “Hold time of the solid” value ([7]; under vacuum at 40° C.) was “at least a month”. The “Purity of compound of Formula II” value ([7]; wet cake sample at start of study) was 98.67%, the solubility [6, 8] was 2.9 to 9.7 mg/mL and the solubility [6, 9] was 26 to 52 mg/mL. For the same compound, the solubility [6, 10] was < 2 mg/mL, the solubility [6, 11] was 8.7 to 26 mg/mL and the solubility [6, 12] was > 40 mg/mL. The solubility [6, 13] was > 44 mg/mL, the solubility [6, 14] was 20 to 40 mg/mL and the solubility [6, 15] was 2.7 to 9.3 mg/mL. The solubility [6, 16] was 2.6 to 8.7 mg/mL, the solubility [6, 17] was 7.7 to 23 mg/mL and the solubility [6, 18] was 21 to 43 mg/mL. For the same compound, the solubility [6, 19] was 2.4 to 8 mg/mL, the solubility [6, 20] was 7.3 to 22 mg/mL and the solubility [6, 21] was 21 to 42 mg/mL. For the same compound, the solubility [6, 22] was > 44 mg/mL, the solubility [6, 23] was < 2.7 mg/mL and the solubility [6, 24] was < 2.8 mg/mL. The solubility [6, 25] was 8.3 to 25 mg/mL, the solubility [6, 26] was < 2 mg/mL and the solubility ([6]; water, H2O) was < 2 mg/mL.

Source: patent US20240116891A1, “MARALIXIBAT SOLID FORMS, INTERMEDIATES AND PROCESSES OF MAKING SAME” (MIRUM PHARMACEUTICALS, INC., priority 2022, published 2024)
